DBAASP
In brackets after ≈: the same amount, converted by molar mass. Several values for one entry are separate records, joined by “and”; a condition that tells them apart may be missing. Equal values may be shown once.

What was measured:
Experiment in all cases: ≥ marks a high value that may be exact or a test limit, other limits are often not marked, values filed in µg/mL are converted to µM
[1] = test system: Candida albicans ATCC 10231
Candida glabrata 090902 = test system: Candida glabrata 090902
[2] = test system: Enterobacter cloacae CGMCC 1.57
[3] = test system: Enterococcus faecalis 981
[4] = test system: Enterococcus faecium 091299
[5] = test system: Escherichia coli ATCC 25922
[6] = test system: Klebsiella pneumoniae 08040724
Nocardia asteroides = test system: Nocardia asteroides
[7] = test system: Pseudomonas aeruginosa CGMCC 1.50
[8] = test system: Psychrobacter faecalis X29
[9] = test system: Staphylococcus aureus ATCC 25923
Escherichia coli W160-37 = test system: Escherichia coli W160-37
[10] = test system: Pseudomonas aeruginosa NCTC 6751
[11] = test system: Staphylococcus aureus ATCC 8530
Arthrobacter sp. = test system: Arthrobacter sp.
Bacillus subtilis = test system: Bacillus subtilis
Bacillus thuringiensis = test system: Bacillus thuringiensis
Escherichia coli = test system: Escherichia coli
Pseudomonas sp. ADP = test system: Pseudomonas sp. ADP
Staphylococcus aureus = test system: Staphylococcus aureus
[12] = test system: Staphylococcus aureus A170
[13] = test system: Staphylococcus epidermidis
[14] = test system: Bacillus subtilis KCTC 3068
[15] = test system: Escherichia coli CCARM 1229
[16] = test system: Escherichia coli CCARM 1238
[17] = test system: Escherichia coli KCTC 1682
[18] = test system: Pseudomonas aeruginosa KCTC 1637
[19] = test system: Salmonella typhimurium CCARM 8003
[20] = test system: Salmonella typhimurium CCARM 8009
[21] = test system: Salmonella typhimurium KCTC 1926
[22] = test system: Staphylococcus aureus CCARM 3089
[23] = test system: Staphylococcus aureus CCARM 3114
[24] = test system: Staphylococcus aureus KCTC 1621
[25] = test system: Staphylococcus epidermidis KCTC 1917
[26] = test system: Candida albicans ATCC 37092
[27] = test system: Candida tropicalis ATCC 37097
[28] = test system: Enterococcus faecalis ATCC 29212
[29] = test system: Klebsiella oxytoca ATCC 49131
[30] = test system: Micrococcus luteus ATCC 49732
[31] = test system: Proteus vulgaris ATCC 49132
[32] = test system: Pseudomonas aeruginosa ATCC 27853
[33] = test system: Staphylococcus aureus ATCC 29213
[34] = test system: Aspergillus niger CECT 2694
[35] = test system: Fusarium oxysporum f. sp. lycopersici ATCC 201829
[36] = test system: Penicillium expansum EPS 26
[37] = test system: Rhizopus stolonifer CECT 2344

Structure (SMILES): CC[C@H](C)[C@H](NC(=O)[C@H](CCCCN)NC(=O)[C@H](CC(C)C)NC(=O)[C@H](C)NC(=O)[C@@H](NC(=O)CNC(=O)[C@H](CCSC)NC(=O)[C@@H](N)Cc1ccccc1)[C@@H](C)O)C(=O)N[C@@H](C)C(=O)N[C@@H](C)C(=O)N[C@@H](CC(N)=O)C(=O)N[C@H](C(=O)N[C@@H](CC(C)C)C(=O)N1CCC[C@H]1C(=O)N[C@@H](C)C(=O)N[C@@H](C)C(=O)N[C@@H](Cc1ccccc1)C(=O)N[C@H]1CSSC[C@@H](C(=O)O)NC(=O)[C@H](CCCCN)NC(=O)[C@H](CCCCN)NC(=O)[C@H](Cc2ccccc2)NC(=O)[C@H]([C@@H](C)CC)NC(=O)[C@H](CCCCN)NC1=O)C(C)C [FMGTALKIAANVLPAAFCKIFKKC]
- MIC [1]: 100 µM (≈ 258 µg/mL)
- MIC (Candida glabrata 090902): 12.5 µM (≈ 32.3 µg/mL)
- MIC [2]: ≥ 100 µM
- MIC [3]: 3.1 µM (≈ 8.01 µg/mL)
- MIC [4]: ≥ 100 µM
- MIC [5]: 200 µM (≈ 517 µg/mL)
- MIC [6]: ≥ 400 µM
- MIC (Nocardia asteroides): 3.1 µM (≈ 8.01 µg/mL)
- MIC [7]: ≥ 400 µM
- MIC [8]: 12.5 µM (≈ 32.3 µg/mL)
- MIC [9]: 3.1 µM (≈ 8.01 µg/mL)

Structure (SMILES): CC(=O)N[C@@H](Cc1ccccc1)C(=O)N[C@@H](CCCN=C(N)N)C(=O)N[C@@H](CCCCN)C(=O)N[C@@H](CC(C)C)C(=O)N[C@@H](Cc1ccccc1)C(=O)N[C@@H](CCCN=C(N)N)C(=O)N[C@H](C(=O)N[C@@H](Cc1ccc(O)cc1)C(=O)N[C@@H](CO)C(=O)N[C@@H](CC(N)=O)C(=O)N[C@@H](Cc1ccccc1)C(=O)N[C@@H](CC(C)C)C(=O)N[C@@H](CCCN=C(N)N)C(=O)NCC(=O)N[C@@H](CCCCN)C(=O)N[C@@H](CC(C)C)C(=O)N[C@@H](CCCCN)C(=O)N[C@@H](CC(C)C)C(N)=O)C(C)C [FRKLFRVYSNFLRGKLKL]
- MIC (Escherichia coli W160-37): 11 µM (≈ 25.6 µg/mL)
- MIC [10]: 22 µM (≈ 51.2 µg/mL)
- MIC [11]: 11 µM (≈ 25.6 µg/mL)

Structure (SMILES): CC[C@H](C)[C@H](NC(=O)[C@H](CCCN=C(N)N)NC(=O)[C@H](CC(C)C)NC(=O)CN)C(=O)N[C@@H](CC(C)C)C(=O)N[C@@H](CC(C)C)C(=O)N[C@@H](CC(C)C)C(=O)N[C@@H](CCCCN)C(=O)N[C@H](C(N)=O)C(C)C [GLRILLLKV]
- MIC (Arthrobacter sp.): ≥ 46.3 µM
- MIC (Bacillus subtilis): 12.4 µM (≈ 12.7 µg/mL)
- MIC (Bacillus thuringiensis): 30.8 µM (≈ 31.5 µg/mL)
- MIC (Escherichia coli): 77.2 µM (≈ 79 µg/mL)
- MIC (Pseudomonas sp. ADP): 15.4 µM (≈ 15.8 µg/mL)
- MIC (Staphylococcus aureus): 3 µM (≈ 3.07 µg/mL)

Structure (SMILES): CC[C@H](C)[C@H](NC(=O)[C@@H]1CCCN1C(=O)[C@H](CC(C)C)NC(=O)[C@@H](N)CC(C)C)C(=O)N[C@H](C(=O)NCC(=O)N[C@@H](C)C(=O)N[C@@H](CC(C)C)C(=O)N[C@@H](CC(C)C)C(=O)N[C@@H](CCCCN)C(=O)N[C@@H](CO)C(=O)N[C@@H](CC(C)C)C(=O)N[C@@H](CC(C)C)C(=O)O)C(C)C [LLPIVGALLKSLL]
- MIC [12]: 14.8 µM (≈ 20 µg/mL)
- MIC [13]: 7.41 µM (≈ 10 µg/mL)

Structure (SMILES): CC[C@H](C)[C@H](NC(=O)[C@H](C)NC(=O)[C@H](CC(C)C)NC(=O)[C@H](Cc1c[nH]c2ccccc12)NC(=O)[C@H](CC(C)C)NC(=O)[C@@H](N)CCCN=C(N)N)C(=O)N[C@@H](Cc1c[nH]c2ccccc12)C(=O)N[C@@H](CCCN=C(N)N)C(=O)N[C@@H](CCCN=C(N)N)C(N)=O [RLWLAIWRR]
- MIC [14]: 2 µM (≈ 2.54 µg/mL)
- MIC [15]: 8 µM (≈ 10.1 µg/mL)
- MIC [16]: 4 µM (≈ 5.07 µg/mL)
- MIC [17]: 2 µM (≈ 2.54 µg/mL)
- MIC [18]: 11.3 µM (≈ 14.4 µg/mL)
- MIC [19]: 16 µM (≈ 20.3 µg/mL)
- MIC [20]: 8 µM (≈ 10.1 µg/mL)
- MIC [21]: 8 µM (≈ 10.1 µg/mL)
- MIC [22]: 2 µM (≈ 2.54 µg/mL)
- MIC [23]: 4 µM (≈ 5.07 µg/mL)
- MIC [24]: 2 µM (≈ 2.54 µg/mL)
- MIC [25]: 1 µM (≈ 1.27 µg/mL)

Structure (SMILES): CC(C)C[C@H](NC(=O)[C@H](CCCN=C(N)N)NC(=O)[C@H](CCCN=C(N)N)NC(=O)[C@H](Cc1ccc(O)cc1)NC(=O)[C@H](CC(C)C)NC(=O)[C@H](CCCN=C(N)N)NC(=O)[C@H](CCCN=C(N)N)NC(=O)[C@H](Cc1ccc(O)cc1)NC(=O)[C@H](CC(C)C)NC(=O)[C@H](CCCN=C(N)N)NC(=O)[C@H](CCCN=C(N)N)NC(=O)[C@H](Cc1ccc(O)cc1)NC(=O)[C@H](CC(C)C)NC(=O)[C@@H](N)CCCN=C(N)N)C(=O)N[C@@H](Cc1ccc(O)cc1)C(=O)N[C@@H](CCCN=C(N)N)C(N)=O [RLYRRLYRRLYRRLYR]
- MIC [26]: 1.2 µM and 1.9 µM
- MIC [27]: 0.8 µM and 1.2 µM
- MIC [28]: 0.9 µM and 1.4 µM
- MIC [5]: 1 µM and 0.7 µM
- MIC [29]: 0.9 µM (≈ 2.13 µg/mL)
- MIC [30]: 0.6 µM (≈ 1.42 µg/mL)
- MIC [31]: 1.8 µM and 1.2 µM
- MIC [32]: 0.5 µM and 1 µM
- MIC [33]: 1.8 µM and 1.1 µM

Structure (SMILES): CC[C@H](C)[C@H](NC(=O)[C@H](CCCCN)NC(=O)[C@H](CCCCN)NC(=O)[C@H](Cc1ccccc1)NC(=O)[C@H](CC(C)C)NC(=O)[C@H](CCCCN)NC(=O)[C@@H](N)Cc1ccc(O)cc1)C(=O)N[C@@H](CC(C)C)C(=O)N[C@@H](CCCCN)C(=O)N[C@H](C(=O)N[C@@H](CC(C)C)C(N)=O)C(C)C [YKLFKKILKVL]
- MIC [34]: 17.3 µM (≈ 24.1 µg/mL)
- MIC [35]: 1.73 µM (≈ 2.41 µg/mL)
- MIC [36]: ≥ 35.4 µM
- MIC [37]: ≥ 70.7 µM
